Measurements: patent US20250312258A1, “2,3-PYRROLIDINEDIONE CONJUGATES AND METHODS OF USING THEREOF” (North Carolina State University, priority 2022, published 2025)
Read-outs that look alike come from different tables or passages of the source.

What was measured:
[1] = tested on: ATCC 29212 E. faecalis; experiment: MIC against ATCC 29212 E. faecalis; assay type: cell-based; conditions: Enterococcus faecalis, ATCC29212, ATCC 29212 E. faecalis, read-out: MIC
[2] = tested on: S. aureus 29213; experiment: Broth microdilution MIC, S. aureus 29213; assay type: cell-based, Staphylococcus aureus; conditions: Staphylococcus aureus
[3] = tested on: Group B Strep; experiment: MIC against Group B Strep strain panel; assay type: cell-based; conditions: read-out: MIC
[4] = tested on: MRSA 33591; experiment: Broth microdilution MIC, MRSA 33591; assay type: cell-based; conditions: Staphylococcus aureus, read-out: MIC (MRSA 33591)
[5] = tested on: VRSA; experiment: MIC against VRSA strain panel (VRS/NRS strains); assay type: cell-based; conditions: Staphylococcus aureus, read-out: MIC
[6] = tested on: VRE; experiment: MIC / in vitro activity against VRE strain panel; assay type: cell-based, Enterococcus spp.; conditions: Enterococcus, VRE, read-out: MIC

Measured: MIC

CCC1C(c2ccc(C(F)(F)F)cc2)=C(O)C(=O)N1CCCNCCCCNC (stereo not shown) [Compound 8]
2 µg/mL: [5]; NRS 2 / VRSA, NRS-2 VRSA, the 5th table
32 µg/mL: [5]; VRSA, VRS-1 (VRSA), the 3rd table | [5]; VRSA, VRS-1 VRSA, the 5th table | [5]; VRSA, VRS-5 VRSA, the 5th table | [5]; VRSA, VRS-6 VRSA, the 5th table | [5]; VRSA, VRS-7 VRSA, the 5th table | [5]; VRSA, VRS-10 VRSA, the 5th table | [6]; 1593 (VRE), the 3rd table | [6]; 1593 VRE, the 4th table | [6]; 1772 VRE, the 6th table | [6]; 1946 VRE, the 6th table | [6]; 2059 VRE, the 6th table | [6]; 2431 (VRE), the 3rd table | [6]; 2431 VRE, the 6th table | [6]; 2574 VRE, the 6th table | [6]; 3053 VRE, the 6th table | [6]; 3190 VRE, the 6th table | [6]; 3191 VRE, the 6th table
0.25 to 0.5 µg/mL: [2]; 29213, read-out: MIC (S. aureus 29213)
> 64 µg/mL: [5]; VRSA, VRS-3b VRSA, the 5th table
8 µg/mL: [5]; VRSA, VRS-2 (VRSA), the 3rd table | [5]; VRSA, VRS-2 VRSA, the 5th table
≤ 0.125 µg/mL: [3]; 2008-70 Group B Strep, the 9th table | [3]; 2009-43 Group B Strep, the 9th table | [3]; 2009-51 Group B Strep, the 9th table | [3]; 2009-62 Group B Strep, CA-MHB w/5% LHB, the 4th table | [3]; J4182 Group B Strep, the 9th table
1 µg/mL: [1]; the 4th table | [2]; ATCC 29213 / MRSA, ATCC 29213 MRSA, the 4th table, read-out: MIC | [2]; ATCC 29213 / MRSA, ATCC 29213 MRSA, the 5th table, read-out: MIC
4 µg/mL: [1]; the 6th table | [5]; NRS 1 / VRSA, NRS-1 (VRSA), the 3rd table | [5]; NRS 1 / VRSA, NRS-1 VRSA, the 5th table | [5]; VRSA, VRS-3a VRSA, the 5th table
64 µg/mL: [5]; VRSA, VRS-8 VRSA, the 5th table | [5]; VRSA, VRS-9 VRSA, the 5th table | [5]; VRSA, VRS-11a VRSA, the 5th table | [5]; VRSA, VRS-11b VRSA, the 5th table
0.5 µg/mL: [4]
0.25 µg/mL: [3]; 2008-57 Group B Strep, the 9th table | [3]; 2008-87 Group B Strep, CA-MHB w/5% LHB, the 4th table | [3]; 2008-115 Group B Strep, the 9th table | [3]; 2009-20 Group B Strep, the 9th table | [3]; 2009-40 Group B Strep, the 9th table | [3]; 2009-57 Group B Strep, the 9th table | [3]; 2009-59 Group B Strep, the 9th table | [3]; 2009-60 Group B Strep, the 9th table | [3]; 2009-61 Group B Strep, CA-MHB w/5% LHB, the 4th table | [3]; J4183 Group B Strep, the 9th table | [3]; J4185 Group B Strep, the 9th table | [3]; J4186 Group B Strep, the 9th table | [3]; J4222 Group B Strep, the 9th table
16 µg/mL: [5]; VRSA, VRS-4 (VRSA), the 3rd table | [5]; VRSA, VRS-4 VRSA, the 5th table | [6]; 1751 (VRE), the 3rd table | [6]; 1751 VRE, the 6th table | [6]; 3183 (VRE), the 3rd table | [6]; 3183 VRE, the 6th table | [6]; 3222 (VRE, the 3rd table) | [6]; 3222 VRE, the 6th table | [6]; 3235 VRE, the 6th table
